The test system of one assay is Panc02 cells. Put plainly: MTT cell viability assay, Panc02. The settings on record: API 40 μM, 24 h, vs DMSO vehicle. It counts as cell-based, mouse. As for the experimental part:
The methyl thiazol tetrazolium (MTT) assay was performed as described previously^58. Briefly, MiaPaCa-2, Panc02 and UN-KC-6141 cells were seeded in 96-well plates at a density of 3000 cells/well and allowed to attach overnight. PC cells were then treated with API (40 μM) or DMSO (1%) as vehicle control for 24 h at 37° C. in 5% CO2 incubator. After 24 h, media was replaced with 20 μL of MTT (1 mg/mL) (Sigma-Aldrich) and incubated for 3 h at 37° C. in 5% CO2. MTT was replaced with DMSO, and absorbance was read at 570 nm.
MiaPaCa-2, Panc02 and UN-KC-6141 cells (2×10^5) were grown in 2 mL of growth medium in a 6-well tissue culture plate for 18-24 h until 60-80% confluency. The following solutions were prepared: Solution A) For each transfection, diluted 1 μL of miRNA-155 inhibitors (1 μM) (Table 2) or scrambled negative control miRNA (1 μM) (Qiagen, Germantown, MD, USA) into 50 μL Opti-MEM Transfection Medium (Invitrogen, Waltham, MA, USA). Solution B) For each transfection, diluted 3 μL of Hi-Perfect Transfection Reagent into 50 μL Opti-MEM Transfection Medium. Solution A was added directly to Solution B, mixed gently and the mixture incubated for 10-15 min at room temperature. […]
In general terms: Tetrazolium assays rely on reduction of a dye to a coloured formazan, in cell work by metabolically active cells.

For a further assay, the system named is SHIP-1. Put plainly: SHIP-1 gene and protein expression in OPC mice. The note with it: API 25 mg/kg IP 3 times per week for 2-3 weeks, vs OPC mice. It counts as in vivo, mouse. As for the experimental part:
The inventors reported recently that API reduced tumor growth in an orthotopic (O) mouse model of PC (OPC)^12, which is a more clinically relevant model^69. To investigate if API targets miR-155 and regulates SHIP-1 expression in the BM and tumor of an OPC mouse model, OPC mice were treated with API at a dose of 25 mg/kg (IP) 3 times per week for 2-3 weeks.
To generate orthotopic pancreatic models (OPC), anesthetized (1.5-3% isoflurane) mice were injected in the neck of the pancreas, via laparotomy^59, with sterile PBS (CTRL) or 1.25×10^4 Panc02 cells (OPC), in sterile 1×PBS. […]
Isolation of total RNA from digested pancreatic tumors and BM cells was performed using a RNeasy Mini Kit (Qiagen), according to the manufacturer's instructions. RT-PCR of quantified and normalized total RNA was performed using a High-Capacity cDNA RT Kit with an RNase Inhibitor (Applied Biosystems), according to the manufacturer's instructions. […]
Single-cell suspensions of BM, digested pancreatic tumors cells and UN-KC-6141 cells treated with API (40 μM) were lysed with radioimmunoprecipitation buffer (Sigma-Aldrich), quantified with a BCA Protein Assay kit (Thermo Fisher Scientific, Waltham, MA, USA), resolved by SDS-PAGE (Thermo Fisher Scientific) and transferred onto a nitrocellulose membrane as previously described. […]

The subject of assay [1] is orthotopic (O) mouse model of PC (OPC). The settings on record: earlier report (ref 12), cited from earlier work.

As to `O=c1cc(-c2ccc(O)cc2)oc2cc(O)cc(O)c12` [API, 40,5,7-Trihydroxyflavone, 5,7-Dihydroxy-2-(4-hydroxyphenyl)-4-benzopyrone], in the assay on Panc02 cells, the “cell viability (MTT)” value is recorded as “significantly inhibited”. In the assay with SHIP-1, the “SHIP-1 gene expression in BM” value is recorded as “significantly increased” and the “SHIP-1 protein expression in BM” value was “significantly increased”. For the same molecule, in assay [1] (API treatment of OPC mice), the “necrosis of pancreatic tumor cells (H&E staining)” value is “induced necrosis”. The tumor growth result in assay [1] (OPC mouse model) was “reduced”.

(Values after patent publication US20240415804A1, “METHOD OF TREATING PANCREATIC CANCER” (University of South Florida, priority 2022, published 2024).)
